Molecules are shown by their SMILES. A value given as a limit tells only on which side of the number the result lay.

The first assay addresses human PDE1B enzyme (Homo sapiens (Human), UniProt Q01064). Nature of the assay: IMAP TR-FRET PDE1B enzymatic assay. Type of assay: biochemical. As to conditions: negative log of half-maximal molar inhibitory concentration; 200 nM FAM-cAMP; values given as bins. Summed up: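 Full-length GST-tagged human PDE1B (250 pg/well) in IMAP BSA buffer with 10 U/ml calmodulin and 2.5 mM CaCl2; compound pre-incubated 5 min at room temperature, then 200 nM (final) FAM-cAMP for 30 min. IMAP binding reagent/Tb added, 1 h; TR-FRET 520/490 ratio read. IC50 from sigmoidal dose-response fit.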
`Cc1oc2ncnc(NC3(C)CC3)c2c1C(=O)NCc1cc(C2CC2)ncn1` [Example 686, N-[(6-Cyclopropylpyrimidin-4-yl)methyl]-6-methyl-4-[(1-methylcyclopropyl)amino]furo[2,3-d]pyrimidine-5-carboxamide]: the “PDE1b (pIC50)” value was greater than 8. As for `COc1ncc(CNC(=O)c2c(C)oc3ncnc(NC4(C)CC4)c23)cn1` [Example 698, N-[(2-Methoxypyrimidin-5-yl)methyl]-6-methyl-4-[(1-methylcyclopropyl)amino]furo[2,3-d]pyrimidine-5-carboxamide], the “PDE1b (pIC50)” value is given as greater than 8.

The assay is the same for the next values; noted with them: negative log of half-maximal molar inhibitory concentration; 200 nM FAM-cAMP; values given as bins; read-out: PDE1b (pIC50) (converted).
`Cc1cc(N2CCC(NC(=O)c3c(C)oc4ncnc(NC5(C)CC5)c34)CC2)nc(C)n1` [Example 672, N-[1-(2,6-Dimethylpyrimidin-4-yl)piperidin-4-yl]-6-methyl-4-[(1-methylcyclopropyl)amino]furo[2,3-d]pyrimidine-5-carboxamide]: the IC50 was 0.1 to 1 µM.

In the case of `Cc1ncc(CNC(=O)c2c(C)oc3ncnc(NC4(C)CC4)c23)c(=O)[nH]1` [Example 673, 6-Methyl-N-[(2-methyl-6-oxo-1,6-dihydropyrimidin-5-yl)methyl]-4-[(1-methylcyclopropyl)amino]furo[2,3-d]pyrimidine-5-carboxamide], the IC50 was 0.01 to 0.1 µM.

Take `Cc1oc2ncnc(NC3(C)CC3)c2c1C(=O)NCc1ccnc(-n2ccnc2)c1` [Example 674, N-{[2-(1H-Imidazol-1-yl)pyridin-4-yl]methyl}-6-methyl-4-[(1-methylcyclopropyl)amino]furo[2,3-d]pyrimidine-5-carboxamide]: the IC50 is 0.01 to 0.1 µM.

Consider `Cc1oc2ncnc(NC3(C)CC3)c2c1C(=O)NCc1ccnc(N2CCOCC2)c1` [Example 675, 6-Methyl-4-[(1-methylcyclopropyl)amino]-N-{[2-(morpholin-4-yl)pyridin-4-yl]methyl}furo[2,3-d]pyrimidine-5-carboxamide], for which the IC50 is 0.01 to 0.1 µM.

`COc1nc(C)ncc1CNC(=O)c1c(C)oc2ncnc(NC3(C)CC3)c12` [Example 676, N-[(4-Methoxy-2-methylpyrimidin-5-yl)methyl]-6-methyl-4-[(1-methylcyclopropyl)amino]furo[2,3-d]pyrimidine-5-carboxamide]: the IC50 is 0.01 to 0.1 µM. Regarding `Cc1oc2ncnc(NC3(C)CC3)c2c1C(=O)NCc1ccnc(Cl)n1` [Example 677, N-[(2-Chloropyrimidin-4-yl)methyl]-6-methyl-4-[(1-methylcyclopropyl)amino]furo[2,3-d]pyrimidine-5-carboxamide], the IC50 is 0.01 to 0.1 µM. Same read-out and setting: for `COc1ccc(CNC(=O)c2c(C)oc3ncnc(NC4(C)CC4)c23)nc1F` [Example 678, N-[(6-Fluoro-5-methoxypyridin-2-yl)methyl]-6-methyl-4-[(1-methylcyclopropyl)amino]furo[2,3-d]pyrimidine-5-carboxamide] the value was 0.01 to 0.1 µM; for `Cc1ncc(CNC(=O)c2c(C)oc3ncnc(NC4(C)CC4)c23)cn1` [Example 679, 6-Methyl-4-[(1-methylcyclopropyl)amino]-N-[(2-methylpyrimidin-5-yl)methyl]furo[2,3-d]pyrimidine-5-carboxamide], 0.01 to 0.1 µM. The same measure, in the same setting: then `Cc1oc2ncnc(NC3(C)CC3)c2c1C(=O)NCc1nccc(C(F)(F)F)n1` [Example 680, 6-Methyl-4-[(1-methylcyclopropyl)amino]-N-{[4-(trifluoromethyl)pyrimidin-2-yl]methyl}furo[2,3-d]pyrimidine-5-carboxamide], with 0.01 to 0.1 µM. On the same count and under the same terms, for `Cc1oc2ncnc(NC3(C)CC3)c2c1C(=O)N1Cc2nc(C3CC3)[nH]c(=O)c2C1` [Example 681, 2-Cyclopropyl-6-{6-methyl-4-[(1-methylcyclopropyl)amino]furo[2,3-d]pyrimidine-5-carbonyl}-3H,4H,5H,6H,7H-pyrrolo[3,4-d]pyrimidin-4-one] the value was 0.1 to 1 µM; for `Cc1oc2ncnc(NC3(C)CC3)c2c1C(=O)N1Cc2nc(C(C)C)[nH]c(=O)c2C1` [Example 682, 6-{6-Methyl-4-[(1-methylcyclopropyl)amino]furo[2,3-d]pyrimidine-5-carbonyl}-2-(propan-2-yl)-3H,4H,5H,6H,7H-pyrrolo[3,4-d]pyrimidin-4-one], 0.1 to 1 µM; for `Cc1oc2ncnc(NC3(C)CC3)c2c1C(=O)N1CCn2nccc2C1` [Example 683, 6-Methyl-N-(1-methylcyclopropyl)-5-{4H,5H,6H,7H-pyrazolo[1,5-a]pyrazine-5-carbonyl}furo[2,3-d]pyrimidin-4-amine], 0.01 to 0.1 µM. Consider `Cc1oc2ncnc(NC3(C)CC3)c2c1C(=O)N1CCn2c(cnc2C2CC2)C1` [Example 684, 5-{3-Cyclopropyl-5H,6H,7H,8H-imidazo[1,5-a]pyrazine-7-carbonyl}-6-methyl-N-(1-methylcyclopropyl)furo[2,3-d]pyrimidin-4-amine], for which the IC50 is 0.1 to 1 µM. On the same count and under the same terms, then `COc1cc(CN(C)C(=O)c2c(C)oc3ncnc(NC4(C)CC4)c23)ncn1` [Example 685, N-[(6-Methoxypyrimidin-4-yl)methyl]-N,6-dimethyl-4-[(1-methylcyclopropyl)amino]furo[2,3-d]pyrimidine-5-carboxamide], with 0.1 to 1 µM; and `COc1nc(C2CC2)nc2c1CN(C(=O)c1c(C)oc3ncnc(NC4(C)CC4)c13)C2` [Example 687, 5-{2-Cyclopropyl-4-methoxy-5H,6H,7H-pyrrolo[3,4-d]pyrimidine-6-carbonyl}-6-methyl-N-(1-methylcyclopropyl)furo[2,3-d]pyrimidin-4-amine], with 0.01 to 0.1 µM; and `COc1nc(C(C)C)nc2c1CN(C(=O)c1c(C)oc3ncnc(NC4(C)CC4)c13)C2` [Example 688, 5-[4-Methoxy-2-(propan-2-yl)-5H,6H,7H-pyrrolo[3,4-d]pyrimidine-6-carbonyl]-6-methyl-N-(1-methylcyclopropyl)furo[2,3-d]pyrimidin-4-amine], with 0.01 to 0.1 µM. The same measure, in the same setting: then `Cc1oc2ncnc(NC3(C)CC3)c2c1C(=O)NCc1ccnc(C2CC2)n1` [Example 689, N-[(2-Cyclopropylpyrimidin-4-yl)methyl]-6-methyl-4-[(1-methylcyclopropyl)amino]furo[2,3-d]pyrimidine-5-carboxamide], with 0.01 to 0.1 µM; and `Cc1oc2ncnc(NC3(C)CC3)c2c1C(=O)N1CCc2cnc(Cl)nc2C1` [Example 690, 5-{2-Chloro-5H,6H,7H,8H-pyrido[3,4-d]pyrimidine-7-carbonyl}-6-methyl-N-(1-methylcyclopropyl)furo[2,3-d]pyrimidin-4-amine], with 0.01 to 0.1 µM; and `Cc1oc2ncnc(NC3(C)CC3)c2c1C(=O)NCc1ncc(C(C)(C)C)o1` [Example 691, N-[(5-tert-Butyl-1,3-oxazol-2-yl)methyl]-6-methyl-4-[(1-methylcyclopropyl)amino]furo[2,3-d]pyrimidine-5-carboxamide], with 0.01 to 0.1 µM. On the same count and under the same terms, then `Cc1oc2ncnc(NC3(C)CC3)c2c1C(=O)N(C)Cc1ncco1` [Example 692, N,6-Dimethyl-4-[(1-methylcyclopropyl)amino]-N-(1,3-oxazol-2-ylmethyl)furo[2,3-d]pyrimidine-5-carboxamide], with 0.1 to 1 µM; and `Cc1oc2ncnc(NC3(C)CC3)c2c1C(=O)NCCc1cnc(C2CC2)nc1` [Example 693, N-[2-(2-Cyclopropylpyrimidin-5-yl)ethyl]-6-methyl-4-[(1-methylcyclopropyl)amino]furo[2,3-d]pyrimidine-5-carboxamide], with 0.1 to 1 µM. As for `Cc1oc2ncnc(NC3(C)CC3)c2c1C(=O)N1CCn2c(C3CC3)nc(Cl)c2C1` [Example 694, 5-{1-Chloro-3-cyclopropyl-5H,6H,7H,8H-imidazo[1,5-a]pyrazine-7-carbonyl}-6-methyl-N-(1-methylcyclopropyl)furo[2,3-d]pyrimidin-4-amine], the IC50 is 0.01 to 0.1 µM. On the same count and under the same terms, for `Cc1oc2ncnc(NC3(C)CC3)c2c1C(=O)N1CCn2c(C3CC3)nc(I)c2C1` [Example 695, 5-{3-Cyclopropyl-1-iodo-5H,6H,7H,8H-imidazo[1,5-a]pyrazine-7-carbonyl}-6-methyl-N-(1-methylcyclopropyl)furo[2,3-d]pyrimidin-4-amine] the value was 0.01 to 0.1 µM.

For the compound `Cc1oc2ncnc(NC3(C)CC3)c2c1C(=O)NCc1ncc(C(F)(F)F)cn1` [Example 696, 6-Methyl-4-[(1-methylcyclopropyl)amino]-N-{[5-(trifluoromethyl)pyrimidin-2-yl]methyl}furo[2,3-d]pyrimidine-5-carboxamide], the IC50 was 0.01 to 0.1 µM. Regarding `Cc1cccc(CNC(=O)c2c(C)oc3ncnc(NC4(C)CC4)c23)n1` [Example 697, 6-Methyl-4-[(1-methylcyclopropyl)amino]-N-[(6-methylpyridin-2-yl)methyl]furo[2,3-d]pyrimidine-5-carboxamide], the IC50 is 0.01 to 0.1 µM.

For `COc1ncc2c(n1)CN(C(=O)c1c(C)oc3ncnc(NC4(C)CC4)c13)CC2` [Example 699, 5-{2-Methoxy-5H,6H,7H,8H-pyrido[3,4-d]pyrimidine-7-carbonyl}-6-methyl-N-(1-methylcyclopropyl)furo[2,3-d]pyrimidin-4-amine], the IC50 was 0.1 to 1 µM. Same read-out and setting: for `Cc1csc(CN(C)C(=O)c2c(C)oc3ncnc(NC4(C)CC4)c23)n1` [Example 700, N,6-Dimethyl-N-[(4-methyl-1,3-thiazol-2-yl)methyl]-4-[(1-methylcyclopropyl)amino]furo[2,3-d]pyrimidine-5-carboxamide] the value was 0.01 to 0.1 µM. On the same count and under the same terms, then `Cc1oc2ncnc(NC3(C)CC3)c2c1C(=O)N(C)Cc1nccs1` [Example 701, N,6-Dimethyl-4-[(1-methylcyclopropyl)amino]-N-(1,3-thiazol-2-ylmethyl)furo[2,3-d]pyrimidine-5-carboxamide], with 0.1 to 1 µM. On the same count and under the same terms, then `Cc1cnc(CN(C)C(=O)c2c(C)oc3ncnc(NC4(C)CC4)c23)s1` [Example 702, N,6-Dimethyl-N-[(5-methyl-1,3-thiazol-2-yl)methyl]-4-[(1-methylcyclopropyl)amino]furo[2,3-d]pyrimidine-5-carboxamide], with 0.01 to 0.1 µM.

These data come from patent publication US20250145633A1, “SUBSTITUTED FURANOPYRIMIDINE COMPOUNDS AS PDE1 INHIBITORS” (Dart NeuroScience, LLC, priority 2017, published 2025).
